Measurements published in ChEMBL document CHEMBL1255200, “Exploration of piperidine-4-yl-aminopyrimidines as HIV-1 reverse transcriptase inhibitors. N-Phenyl derivatives with broad potency against resistant mutant viruses” (Bioorg Med Chem Lett, 2010).
pIC50: −log10 of the molar value.

Assays:
[1] = biological target: Human immunodeficiency virus type 1 reverse transcriptase (Human immunodeficiency virus 1, UniProt Q72547, K103N/Y181C); assay: Inhibition of HIV1 recombinant reverse transcriptase K103N/Y181C double mutant by SPA heteropolymeric assay
[2] = biological target: Human immunodeficiency virus type 1 reverse transcriptase (Human immunodeficiency virus 1, UniProt Q72547); assay: Inhibition of HIV1 recombinant wild type reverse transcriptase by SPA heteropolymeric assay
[3] = biological target: Human immunodeficiency virus type 1 reverse transcriptase (Human immunodeficiency virus 1, UniProt Q72547, Y188L); assay: Inhibition of HIV1 recombinant reverse transcriptase Y188L mutant by SPA heteropolymeric assay
[4] = Clearance in human liver microsomes; assay type: ADME, Microsome
[5] = tested on: Human immunodeficiency virus 1; assay: Antiviral activity against HIV1 harboring reverse transcriptase Y188L mutant infected in human MT4 cells assessed as reduction of virus-induced cytopathic effect by replication assay in presence of 10% FBS; assay type: functional, organism-based; details: Human immunodeficiency virus 1, MT4
[6] = tested on: Human immunodeficiency virus 1; assay: Selectivity ratio of IC50 for wild type HIV1 in presence of 40% human serum to IC50 for wild type HIV1 in presence of 10% FBS; assay type: functional
[7] = tested on: Human immunodeficiency virus 1; assay: Antiviral activity against HIV1 harboring reverse transcriptase V106A mutant infected in human MT4 cells assessed as reduction of virus-induced cytopathic effect by replication assay in presence of 10% FBS; assay type: functional, organism-based; details: Human immunodeficiency virus 1, MT4
[8] = tested on: Human immunodeficiency virus 1; assay: Antiviral activity against wild type HIV1 infected in human MT4 cells assessed as reduction of virus-induced cytopathic effect by replication assay in presence of 10% FBS; assay type: functional, organism-based; details: Human immunodeficiency virus 1, MT4
[9] = tested on: Human immunodeficiency virus 1; assay: Antiviral activity against wild type HIV1 infected in human MT4 cells assessed as reduction of virus-induced cytopathic effect by replication assay in presence of 40% human serum; assay type: functional, organism-based; details: Human immunodeficiency virus 1, MT4
[10] = tested on: Human immunodeficiency virus 1; assay: Antiviral activity against HIV1 harboring reverse transcriptase K103N/Y181C double mutant infected in human MT4 cells assessed as reduction of virus-induced cytopathic effect by replication assay in presence of 10% FBS; assay type: functional, organism-based; details: Human immunodeficiency virus 1, MT4
[11] = tested on: Human immunodeficiency virus 1; assay: Antiviral activity against HIV1 harboring reverse transcriptase K103N/L100I double mutant infected in human MT4 cells assessed as reduction of virus-induced cytopathic effect by replication assay in presence of 10% FBS; assay type: functional, organism-based; details: Human immunodeficiency virus 1, MT4

Structure (SMILES)	pIC50 [1]	pIC50 [2]	pIC50 [3]	microsomal CLint [4] [µL/min/mg]	pIC50 [5]	Ratio IC50 [6]	pIC50 [7]	pIC50 [8]	pIC50 [9]	pIC50 [10]	pIC50 [11]
Cc1cc(C#N)cc(C)c1Oc1nc(NC2CCN(c3cccc(C#N)c3)CC2)ncc1Br	6.45	6.99									
Cc1cc(C#N)cc(C)c1Oc1nc(NC2CCN(c3cc(C(N)=O)ccc3Cl)CC2)ncc1Br	< 6.00	7.12	6.06								
Cc1cc(C#N)cc(C)c1Oc1nc(NC2CCN(Cc3ccc(S(N)(=O)=O)cc3Cl)CC2)ncc1Br				151	8.55	8	8.70	8.21	7.31	8.14	8.23
Cc1cc(C#N)cc(C)c1Oc1ccnc(NC2CCN(c3cccc(S(C)(=O)=O)c3)CC2)n1	6.62	7.96									
Cc1cc(C#N)cc(C)c1Oc1nc(NC2CCN(c3cccc(C(=O)O)c3)CC2)ncc1Br	< 6.00	7.80									
Cc1cc(C#N)cc(C)c1Oc1nc(NC2CCN(c3cccc(C(N)=O)c3)CC2)ncc1F	7.85	7.85	7.46								
Cc1cc(C#N)cc(C)c1Oc1nc(NC2CCN(c3cccc(C(N)=O)c3)CC2)ncc1Br	7.52	7.72	7.15								
Cc1cc(C#N)cc(C)c1Oc1ccnc(NC2CCN(c3cc(Cl)cc(C(N)=O)c3)CC2)n1	6.58	7.55									
Cc1cc(C#N)cc(C)c1Oc1nc(NC2CCN(c3cccc(S(C)(=O)=O)c3)CC2)ncc1Br	7.00	7.38	6.08								
Cc1cc(C#N)cc(C)c1Nc1nc(NC2CCN(c3cccc(C(N)=O)c3)CC2)ncc1Br	7.72	7.72	7.12	42	8.57	9.8	9.05	8.82	7.85	7.93	7.97
Cc1cc(C#N)cc(C)c1Oc1ccnc(NC2CCN(c3cccc(C#N)c3)CC2)n1	6.11	7.29									
COc1cc(C#N)cc(C)c1Oc1nc(NC2CCN(c3cccc(C(N)=O)c3)CC2)ncc1Cl	7.72	7.72	7.00								
Cc1cc(C#N)cc(C)c1Oc1nc(Nc2ccc(C#N)cc2)nc(N)c1Br [ETRAVIRINE]				29						8.04	
COc1cc(C#N)cc(C)c1Oc1ccnc(NC2CCN(c3cccc(C(N)=O)c3)CC2)n1	7.74	7.74	7.19								
Cc1cc(C#N)cc(C)c1Oc1nc(NC2CCN(c3cccc(S(N)(=O)=O)c3)CC2)ncc1Br	7.14	7.72	6.98								
Cc1cc(C#N)cc(C)c1Nc1ccnc(NC2CCN(c3cccc(C(N)=O)c3)CC2)n1	7.64	7.64		31	8.43	27.1	9.10	9.30	7.86	7.82	< 7.00
Cc1cc(C#N)cc(Cl)c1Oc1ccnc(NC2CCN(c3cccc(C(N)=O)c3)CC2)n1	8.10	8.10		274	8.80	17.4		9.40	8.12	8.28	7.38
Cc1cc(C#N)cc(C)c1Oc1nc(NC2CCN(c3cccc(C(N)=O)c3)CC2)ncc1C(F)(F)F	7.39	7.07									
